Experimental data published in patent US20120251482A1, “USE FOR IMPROVING 5-HT FUNCTION AND ENOS EXPRESSION OF KMUPS AMINE SALTS” (KAOHSIUNG MEDICAL UNIVERSITY, priority 2011, published 2012).
Structures can show the parent of a compound that is named as a salt.

Columns and labels:
ERK1/2 = experiment: 5-HT-induced phosphorylation of ERK1/2 in PASMCs; assay type: cell-based, rat
Method: (§1) Wistar rats were anesthetized with an overdose of sodium pentobarbital (60 mg/kg) and the skin was sterilized with 75% alcohol. The chest was opened and the heart and lung were removed. The organs were rinsed several times in PBS. The pulmonary arterys (PAs) were segregated in a sterile manner. The outer sphere was peeled and the microtubule was snipped visually, and endothecia were shaved lightly 2-3 times in order to remove endothelial cells. The tunica media was prepared into scraps (1 mm^3) in DMEM (Dulbecco's modified Eagle's medium). PASMCs were cultured in DMEM containing 10% fetal bovine serum (5% CO2 at 37° C.). The culture medium was changed every 3 days and cells were subcultured until confluence. Primary cultures of 2-4 passages were used in the experiments. Cells were examined by immunofluorescence staining of α-actin to confirm the purity of PASMCs.
(§2) PASMCs were stimulated with 5-HT or not, as indicated. Cells were treated with KMUP-1 for 24 h before 5-HT stimulation. […]
(§3) The expression of RhoA/ROCK and phosphorylation of ERK1/2 and AKT kinase in PASMCs were assessed by incubating the PASMCs with 5-HT (10 μM) for 15 min (peak time for RhoA/ROCK, ERK1/2 and AKT phosphorylation) and 5-HTT for 10 min (peak time for 5-HTT) after KMUP-1 (1-100 μM) was added to the culture of PASMCs for 24 h.

AKT = experiment: 5-HT-induced phosphorylation of AKT in PASMCs; assay type: cell-based, rat
Method: as §1, §2, §3

eNOS = experiment: Expression of eNOS in HPAEC (Western blotting); assay type: cell-based, human
Method: (§4) HPAEC purchased from ATCC were maintained in humidified incubator containing 5% CO2 at 37° C. HPAEC were cultured in F-12 supplemented with 10% fetal bovine serum. The culture medium was changed every 3 days and cells were subcultured until confluence. HPAEC were harvested with a solution of trypsin-EDTA (GIBCO BRL, NY, USA) while in a logarithmic phase of growth. HPAEC were used between passages 4-8.
PASMCs were stimulated with 5-HT or not, as indicated. Cells were treated with KMUP-1 for 24 h before 5-HT stimulation. Whole lysates were collected and resolved by SDS-PAGE as previously described (Liu et al., 2004). Primary antibodies were anti-β-actin at: 1:10,000 dilution and anti-RhoA, anti-ROCK, antiphospho-ERK1/2, anti-ERK1/2, anti-phospho-AKT, anti-AKT, anti-5HTT, anti-5-HT2B and anti-eNOS at 1:1000. All blots were incubated with antibodies at 4° C. overnight. After being washed, the appropriate secondary antibodies were added at a dilution of 1:1000 for 1 h at room temperature. After extensive washing, blots were developed with a Super Signal enhanced chemiluminescence kit (Biorad, CA, USA) and visualized on Kodak AR film.
To measure the expression of eNOS and 5-HT2B receptor in HPAEC after incubation with KMUP-1(1-100 μM) for 24 h, whole lysates were collected for Western blotting assay. The relative density was determined using NIH imaging software.

[1] = system: human pulmonary artery endothelial cell (HPAEC); experiment: Nitric oxide production in HPAEC (Griess method); assay type: cell-based; conditions: 5-HT 10 μM for 30 min
Method: as §4
Production of NO in HPAEC was determined using the Griess method (Niwano et al., 2003). The three step Greiss test converts nitrate (NO3^−) into nitrite (NO2^−) giving a total NO2^− concentration from a standard calibration curve. HPAEC were incubated with or without KMUP-1 (10 μM) for 24 h and then incubated with 5-HT (10 μmol/L) for 30 min. Media samples from HPAEC were taken and the NO concentration was determined. Six independent experiments were carried out and data are reported as the mean mean±SEM.

[2] = system: monocrotaline (MCT)-induced pulmonary artery hypertension rats; experiment: Mean pulmonary arterial pressure in MCT-induced PAH rats; assay type: in vivo, rat; conditions: MCT-treated rats, daily treatment for 21 days, n = 5
rat pulmonary artery = experiment: Isometric force of 5-HT-constricted pulmonary artery rings
Method: Wistar rats were euthanized with an overdose of sodium pentobarbital (60 mg/kg, i.p.) before open-chest surgery. During surgery, a thoracic retractor was used to help isolate the pulmonary artery. The chest was opened to dissect the second branches of the main pulmonary artery, which were cut into 2-3 mm rings, suspended under isometric conditions and connected to a force transducer as previously described (Ugo Basile, Model 7004, Comerio-VA, Italy) (Schach et al., 2007) to measure the constriction caused by 5-HT (10 μM). The pulmonary artery ring preparations were stretched to a basal tension of 1 g and allowed to equilibrate for 60-90 min. After equilibration, pulmonary artery rings were constricted with 5-HT (10 μM) to prime the tissues and check the functionality of the endothelium (at least 80% relaxation in response to acetylcholine 1 μM). Once the contractile response to each agonist reached a stable tension, KMUP-1 (0.1-100 μM) was cumulatively added to the organ bath in the presence of 5-HT (10 μM, pre-incubation time of 15 min).
The effect of KMUP-1 on NOS and 5-HT was also studied in vessels pre-incubated with the NOS inhibitor L-NAME (100 μM) 20 min before 5-HT administration. The percentage of relaxation was estimated using the following equation: relaxation (%)=(maximal contraction—relaxation level)/(maximal contraction-basal level)×100. Data was obtained from serotonin-induced maximal contractile responses in pulmonary artery.

[3] = system: pulmonary arterial smooth muscle cells (PASMCs); experiment: PASMCs [Ca2+]i measurement (Fura-2/AM); assay type: cell-based, rat; conditions: at 10 μM; 5-HT 10 μM
Method: as §1
The measurement of [Ca^2+]i in PASMCs was performed using a spectrofluorophotometer as previously reported (Wang et al., 2004). PASMCs, cultured for 2-4 passages and re-suspended by trypsin, were loaded with Fura-2/AM for the measurement of [Ca^2+]i changes in cells within the cuvette by spectrofluorophotometer (Shimadzu, RF-5301PC, Shimadzu, Japan). KMUP-1 was applied 5 min before application of 5-HT (10 μM).

5-HTT = experiment: Pulmonary 5-HTT expression in MCT-treated rats (immunochemistry, Western blotting); assay type: in vivo, rat
Method: All experiments were performed in adult male Wistar rats (300 to 350 g) in accordance with institutional guidelines after approval by the ethical review committee. PAH development and pulmonary expression of 5-HTT were examined in rats after single injection of MCT (60 mg/kg i.p.). To assess the potential preventive effect of KMUP-1 on MCT-induced PAH and associated proliferation, we assigned rats at random to 2 groups of 8 animals which received KMUP-1 at 5 mg/kg/day p.o or 1 mg/kg/day i.p. All treatments were given once a day for 3 weeks after a single MCT injection (60 mg/kg i.p.) (Abe et al., 2004). On day 21, rats were anesthetized and pulmonary artery blood pressure (MPAP) was recorded as previously described (Chung et al., 2010). Lung tissues were dissected for Western blotting and immunohistochemistry.
For 5-HTT immunostaining, the lung slides were dewaxed in 100% xylene, and the sections were then rehydrated by successive immersion first in decreasing ethanol concentrations (100%, 90%, 80%, 50% and 30%) and then in water. Endogenous peroxidase activity was blocked using H2O2 in methanol (0.3% vol/vol) for 10 min. After three PBS washes, sections were pre-incubated in PBS supplemented with 3% (wt/vol) BSA for 30 min, then incubated overnight at 4° C. with goat polyclonal anti-5-HTT antibody (Abcam Biotechnology, Cambridge, UK) diluted to 1:1000 in 1×PBS, 0.02% BSA. […]

RhoA = experiment: 5-HT-induced RhoA translocation in PASMCs; assay type: cell-based, rat; conditions: 1-100 μM, 24 h; 5-HT 10 μM 15 min
Method: as §1, with “Cells were examined by immunofluorescence staining of α-actin to confirm the purity of PASMCs.” left out
Previous reports have shown that the active form of RhoA is translocated from the cytosol to the plasma membrane, where it activates Rho kinase (Gong et al., 1997)). […] To assess membrane trans-location of RhoA, protein in membrane and cytosolic fractions was determined by standard Western blot analysis using mouse monoclonal anti-RhoA antibody (1:1000 dilution, Santa Cruz Biotechnology) and a peroxidase-labeled anti-mouse immunoglobulin (Ig) G antibody (1:1000 dilution, Santa Cruz Biotechnology, CA, USA). The relative density of membrane to cytosolic RhoA was determined using NIH imaging software. […]

PASMCs [4] = experiment: 5-HT-induced PASMCs migration, wound assay model; assay type: cell-based, rat; conditions: 10-100 μM; 5-HT 10 μM 24 h
Method: The wound edge was viewed and photographed under a microscope (Nikon, Tokyo, Japan) before and after culture for 24 h in serum-free DMEM in the presence of 5HT (10 μM). The distance the cells migrated from the wound surface was then manually measured.

PASMCs [5] = experiment: 5-HT-induced PASMCs proliferation, MTT assay; assay type: cell-based, rat; conditions: KMUP-1 1-100 μM; 5-HT 10 μM 24 h
Method: as §1
PASMCs were seeded into 96-well plates at a density of 1×10^4 cells/well. […] At the end of this period, MTT (2 g/L) was added to each well, and incubation proceeded at 37° C. for 4 h. Thereafter, the medium was removed and the cells were solubilized in 150 μL DMSO. The optical density (OD) of each well was determined by enzyme-linked ELISA at 540 nm of wavelength.

5-HT2B receptor = molecular target: T1, 5-HT2B receptor (Homo sapiens, UniProt P41595); experiment: Displacement of [3H]-LSD radioligand binding; conditions: from Table 1
T1 construct: full length clones of 5-HT2A, 5-HT2B and 5-HT2C receptor were prepared from CHO-K1 cells; expressed in transfected cells; host or cells: CHO-K1
Method: As described previously (Bonhaus et al., 1995), full length clones of 5-HT2A, 5-HT2B and 5-HT2C receptor were prepared from CHO-K1 cells. […] IC50 represents the concentration of competing ligand which displaces 50% of the specific binding of the radioligand. Ki values for competition curves were calculated using the Cheng-Prusoff equation (Cheng, 2001).

[6] = pre-incubation 1-100 μM for 24 h

T1 sequence (P41595 whole entry): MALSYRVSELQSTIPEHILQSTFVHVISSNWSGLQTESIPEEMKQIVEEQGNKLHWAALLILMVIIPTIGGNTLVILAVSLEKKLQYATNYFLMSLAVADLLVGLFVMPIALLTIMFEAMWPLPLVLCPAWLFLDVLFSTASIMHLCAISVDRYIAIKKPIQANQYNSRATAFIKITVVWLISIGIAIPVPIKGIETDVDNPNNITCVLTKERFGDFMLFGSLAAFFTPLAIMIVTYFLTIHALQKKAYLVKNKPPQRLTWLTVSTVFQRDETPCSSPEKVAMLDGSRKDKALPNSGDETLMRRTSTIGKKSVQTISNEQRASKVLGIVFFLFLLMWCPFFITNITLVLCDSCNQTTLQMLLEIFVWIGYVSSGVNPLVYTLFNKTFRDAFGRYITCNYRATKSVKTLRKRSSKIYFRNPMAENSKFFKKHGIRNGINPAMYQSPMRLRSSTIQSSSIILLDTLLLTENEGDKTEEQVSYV

SMILES: NCCc1c[nH]c2ccc(O)cc12 [5-HT, 5-hydroxytryptamine]
- increase of phosphorylation of ERK1/2 (ERK1/2; 5-HT 10 μM for 15 min): 2.3 fold
- increase of phosphorylation of AKT (AKT; 5-HT 10 μM for 15 min): 2.3 fold
- expression of eNOS compared to the control group (eNOS; 5-HT 10 μM for 30 min): increased
- release of NO compared to the control group [1]: increased

SMILES: Cn1c(=O)c2c(ncn2CCN2CCN(c3ccccc3Cl)CC2)n(C)c1=O [KMUP-1 HCl]
- mean pulmonary arterial pressure (MPAP), Table 2 [2]: 35.8 ± 3.2

SMILES: Cn1c(=O)c2c(ncn2CCN2CCN(c3ccccc3Cl)CC2)n(C)c1=O [KMUP-1, 7-[2-[4-(2-chlorophenyl)piperazinyl]ethyl]-1,3-dimethyl-xanthine]
- contractile response of pulmonary artery to 5-HT (10 μM) (rat pulmonary artery; 0.1-100 μM): inhibited
- maximum response of pulmonary artery to 5-HT in the presence of L-NAME (rat pulmonary artery; KMUP-1 10-100 μM, L-NAME 100): reduced the maximum response
- inhibition of the sustained [Ca2+]i response to 5-HT [3]: 65%
- 5-HTT expression in pulmonary artery, immunochemistry (5-HTT; 21 days after MCT injection, 5 mg/kg p.o. and 1 mg/kg i.p.): significantly decreased
- 5-HTT protein expression in lung tissue, Western blotting (5-HTT; MCT-treated rats): significantly reduced
- 5-HT stimulated RhoA translocation (RhoA): inhibited
- 5-HT-induced phosphorylation of ERK1/2 (ERK1/2; [6]): dose-dependently inhibited
- 5-HT-induced phosphorylation of AKT (AKT; [6]): dose-dependently inhibited
- 5-HT induced PASMCs migration (PASMCs [4]): inhibited
- PASMCs proliferation (PASMCs [5]): dose-dependently inhibited
- affinity order of the sub-receptors (5-HT2B receptor): 5-HT2A>5-HT2B>5-HT2C
- ligand specificity of the human 5-HT2B receptor versus 5-HT2A and 5-HT2C receptors (5-HT2B receptor): more selective
- eNOS expression (eNOS; 1-100 μM for 24 h): dose-dependently increased

SMILES: COC(=O)[C@@H](N)CCCNC(=N)N[N+](=O)[O-] [L-NAME, N^ω-nitro-L-arginine methyl ester, reference compound]
- 5-HT-induced constriction (rat pulmonary artery; L-NAME alone with 5-HT): enhanced
